Source: ChEMBL document CHEMBL1132118, “Structure-based design, synthesis, and biological evaluation of irreversible human rhinovirus 3C protease inhibitors. 3. Structure-activity studies of ketomethylene-containing peptidomimetics” (J Med Chem, 1999)

Target: T1, Human rhinovirus A protease (Human rhinovirus sp.) (UniProt Q4U254)
T1 sequence (whole entry): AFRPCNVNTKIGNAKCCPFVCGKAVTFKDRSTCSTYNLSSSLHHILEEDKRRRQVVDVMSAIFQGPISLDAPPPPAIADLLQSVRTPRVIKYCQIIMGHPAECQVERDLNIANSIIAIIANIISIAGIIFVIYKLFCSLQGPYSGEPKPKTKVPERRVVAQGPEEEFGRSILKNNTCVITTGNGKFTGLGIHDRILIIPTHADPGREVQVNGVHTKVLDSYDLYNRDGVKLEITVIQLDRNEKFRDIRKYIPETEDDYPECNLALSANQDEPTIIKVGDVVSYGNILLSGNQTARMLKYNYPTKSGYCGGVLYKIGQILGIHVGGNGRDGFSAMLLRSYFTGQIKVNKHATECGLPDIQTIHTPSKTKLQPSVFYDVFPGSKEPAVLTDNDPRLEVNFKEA
Experiment: The EC90 was calculated as the concentration of drug that increased the percentage of formazan production in drug treated, virus infected cells to 50% of that produced by drug free uninfected cells on human rhinovirus-14.
Type: functional

First: CCOC(=O)/C=C/[C@H](CCC(N)=O)NC(=O)[C@H](Cc1ccc(F)cc1)NC(=O)[C@@H](NC(=O)SC1CCCC1)C(C)C
Second: CCOC(=O)/C=C/[C@H](CCC(N)=O)NC(=O)[C@@H](CC(=O)[C@@H](NC(=O)SC1CCCC1)C(C)C)Cc1ccc(F)cc1
The EC90 of the first is 18-fold higher: 1800 nM for the first, 100 nM for the second.

Molecule `CCOC(=O)/C=C/[C@H](CCC(N)=O)NC(=O)[C@@H](CC(=O)[C@@H](NC(=O)c1cc(C)on1)C(C)C)Cc1ccc(F)cc1` has an EC90 of 320 nM.

Target: T1, Human rhinovirus A protease (Human rhinovirus sp.)
Experiment: The EC90 was calculated as the concentration of drug that increased the percentage of formazan production in drug treated, virus infected cells to 50% of that produced by drug free uninfected cells on human rhinovirus-10.
Type: functional

Going from `CCOC(=O)/C=C/[C@H](CCC(N)=O)NC(=O)[C@H](Cc1ccc(F)cc1)NC(=O)[C@@H](NC(=O)SC1CCCC1)C(C)C` to `CCOC(=O)/C=C/[C@H](CCC(N)=O)NC(=O)[C@@H](CC(=O)[C@@H](NC(=O)SC1CCCC1)C(C)C)Cc1ccc(F)cc1`, the EC90 falls from 2500 nM to 250 nM (10-fold).

`CCOC(=O)/C=C/[C@H](CCC(N)=O)NC(=O)[C@@H](CC(=O)[C@@H](NC(=O)c1cc(C)on1)C(C)C)Cc1ccc(F)cc1` showed an EC90 of 790 nM.

Target: T1, Human rhinovirus A protease (Human rhinovirus sp.)
Experiment: The EC90 was calculated as the concentration of drug that increased the percentage of formazan production in drug treated, virus infected cells to 50% of that produced by drug free uninfected cells on human rhinovirus-2.
Type: functional

Compared with `CCOC(=O)/C=C/[C@H](CCC(N)=O)NC(=O)[C@H](Cc1ccc(F)cc1)NC(=O)[C@@H](NC(=O)SC1CCCC1)C(C)C`, `CCOC(=O)/C=C/[C@H](CCC(N)=O)NC(=O)[C@@H](CC(=O)[C@@H](NC(=O)SC1CCCC1)C(C)C)Cc1ccc(F)cc1` is 22-fold lower in EC90: 5400 nM for the first, 250 nM for the second.

Target: T1, Human rhinovirus A protease (Human rhinovirus sp.)
Experiment: The EC90 was calculated as the concentration of drug that increased the percentage of formazan production in drug treated, virus infected cells to 50% of that produced by drug free uninfected cells on human rhinovirus-1A.
Type: functional

Compared with `CCOC(=O)/C=C/[C@H](CCC(N)=O)NC(=O)[C@H](Cc1ccc(F)cc1)NC(=O)[C@@H](NC(=O)SC1CCCC1)C(C)C`, `CCOC(=O)/C=C/[C@H](CCC(N)=O)NC(=O)[C@@H](CC(=O)[C@@H](NC(=O)SC1CCCC1)C(C)C)Cc1ccc(F)cc1` is 12-fold lower in EC90: 2500 nM for the first, 200 nM for the second.

Tested on: not listed separately
Experiment: The 50% cytotoxic concentration was calculated as the concentration of the drug that decreased the percentage of formazan produced in drug-treated,uninfected cells to 50% of that produced in drug free uninfected cells on serotype 14.
Type: functional

`CCOC(=O)/C=C/[C@H](CCC(N)=O)NC(=O)[C@@H](CC(=O)[C@H](CC(C)C)NC(=O)SC1CCCC1)Cc1ccc(C)cc1` and `CCOC(=O)/C=C/[C@H](CCC(N)=O)NC(=O)[C@@H](CC(=O)[C@H](CC(C)C)NC(=O)SC1CCCC1)Cc1ccc(F)cc1` cannot be ordered by CC50: > 100000 nM for the first, > 100000 nM for the second.

`CCOC(=O)/C=C/[C@H](CCC(N)=O)NC(=O)[C@@H](CC(=O)[C@H](CC(C)C)NC(=O)SC1CCCC1)Cc1ccccc1` and `CCOC(=O)/C=C/[C@H](CCC(N)=O)NC(=O)[C@@H](CC(=O)[C@@H](NC(=O)SC1CCCC1)C(C)C)Cc1ccccc1` cannot be ordered by CC50: > 100000 nM for the first, > 100000 nM for the second.

`CCOC(=O)/C=C/[C@H](CCC(N)=O)NC(=O)[C@@H](CC(=O)[C@@H](NC(=O)SCc1ccccc1)C(C)C)Cc1ccccc1` and `CCOC(=O)/C=C/[C@H](CCC(N)=O)NC(=O)[C@@H](CC(=O)[C@H](CC(C)C)NC(=O)SCc1ccccc1)Cc1ccccc1` cannot be ordered by CC50: > 100000 nM for the first, > 100000 nM for the second.

`CCOC(=O)/C=C/[C@H](CCC(N)=O)NC(=O)[C@H](Cc1ccccc1)NC(=O)[C@H](CC(C)C)NC(=O)OCc1ccccc1` and `CCOC(=O)/C=C/[C@H](CCC(N)=O)NC(=O)[C@@H](CC(=O)[C@H](CC(C)C)NC(=O)OCc1ccccc1)Cc1ccccc1` cannot be ordered by CC50: > 320000 nM for the first, > 320000 nM for the second.

`CCOC(=O)/C=C/[C@H](CCC(N)=O)NC(=O)[C@@H](CC(=O)[C@@H](NC(=O)SC1CCCC1)C(C)C)Cc1ccc(C)cc1` and `CCOC(=O)/C=C/[C@H](CCC(N)=O)NC(=O)[C@@H](CC(=O)[C@@H](NC(=O)SC1CCCC1)C(C)C)Cc1ccc(F)cc1` cannot be ordered by CC50: > 100000 nM for the first, > 100000 nM for the second.

`CCOC(=O)/C=C/[C@H](CCC(N)=O)NC(=O)[C@@H](CC(=O)[C@H](Cc1ccccc1)NC(=O)SC1CCCC1)Cc1ccc(C)cc1` and `CCOC(=O)/C=C/[C@H](CCC(N)=O)NC(=O)[C@@H](CC(=O)[C@H](Cc1ccccc1)NC(=O)SC1CCCC1)Cc1ccc(F)cc1` cannot be ordered by CC50: > 100000 nM for the first, > 100000 nM for the second.

`CCOC(=O)/C=C/[C@H](CCC(N)=O)NC(=O)[C@@H](CC(=O)[C@@H](NC(=O)SC1CCCC1)C(C)C)Cc1ccc(C(F)(F)F)cc1` and `CCOC(=O)/C=C/[C@H](CCC(N)=O)NC(=O)[C@@H](CC(=O)[C@@H](NC(=O)SC1CCCC1)C(C)(C)C)Cc1ccccc1` cannot be ordered by CC50: > 100000 nM for the first, > 100000 nM for the second.
